The results in this text go back to patent publication US20250312499A1, “KISSPEPTIN RECEPTOR (KISS1R) TARGETED THERAPEUTICS AND USES THEREOF” (priority 2024, published 2025).

The experiment has as its target human kisspeptin receptor (Homo sapiens (Human), UniProt Q969F8). As to the kind of experiment: Human KISS1R binding assay (membrane competition binding). The method, boiled down: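 Radioligand competition: 0.2 nM [125I]-metastin (45-54) displaced by test ligand (usually 0–10,000 nM) over 90 min at room temperature, pH 7.4 buffer with 0.1% BSA. Receptor source is crude membrane (5–10 μg) from tetracycline-induced Flp-In T-Rex 293 cells. Bound label filtered and counted; Ki from non-linear regression.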

The mark [1] stands for this setting: 90 min at room temperature, competition with 0.2 nM [125I]-metastin (45-54), Flp-In T-Rex 293 kisspeptin membranes, metal complexes nonradioactive Ga, In, Lu, read-out: hKiSSR Binding Ki (90 min).

Read-outs that look alike come from different tables or passages of the source. Numbered stars: 1 amine (or outer) side, 2 acyl side, 3 side chain; on linkers, the order of the positions; unused ones are H or OH. Square brackets hold non-standard residues; d marks the D form. Side chains are listed from the residue outwards. Peptide text beside a SMILES is read from it. * marks the point of attachment. DOTA(Lu) = O=C1CN2CCN3CCN(CC(=O)*)CCN(CC2)CC(=O)[O][Lu]([O]1)[O]C(=O)C3; DOTA = O=C(O)CN1CCN(CC(=O)O)CCN(CC(=O)*)CCN(CC(=O)O)CC1; Ala(9-anthryl) = N[C@@H](Cc1c2ccccc2cc2ccccc12)C(=O)O; Gly(N-(3-F-4-Me-benzyl)) = Cc1ccc(CNCC(=O)*)cc1F; Gly(Nα-4-MeO-benzyl) = COc1ccc(CNCC(=O)*)cc1; Api(1-amidino) = N=C(N)N1CCC(N)(C(=O)O)CC1; Bip = N[C@@H](Cc1ccc(-c2ccccc2)cc1)C(=O)O; Phe(4-I) = N[C@@H](Cc1ccc(I)cc1)C(=O)O; γGlu = O=C(O)[C@H](CCC(=O)[*:2])N[*:1]; 2Nal = N[C@@H](Cc1ccc2ccccc2c1)C(=O)O; Palmitoyl = CCCCCCCCCCCCCCCC(=O)*; X1 = O=C(CN1CCC(N[*:1])CC1)[*:2]; dCya = N[C@H](CS(=O)(=O)O)C(=O)O; 4Pal = N[C@@H](Cc1ccncc1)C(=O)O; Cha = N[C@@H](CC1CCCCC1)C(=O)O; PEG4 = NCCOCCOCCOCCOCCC(=O)O; Nle = CCCC[C@H](N)C(=O)O; Api = NC1(C(=O)O)CCNCC1; Ahx = NCCCCCC(=O)O; azaGly = NNC(=O)O Some results are limits rather than exact numbers.

Sequence of human kisspeptin receptor (Q969F8 whole entry): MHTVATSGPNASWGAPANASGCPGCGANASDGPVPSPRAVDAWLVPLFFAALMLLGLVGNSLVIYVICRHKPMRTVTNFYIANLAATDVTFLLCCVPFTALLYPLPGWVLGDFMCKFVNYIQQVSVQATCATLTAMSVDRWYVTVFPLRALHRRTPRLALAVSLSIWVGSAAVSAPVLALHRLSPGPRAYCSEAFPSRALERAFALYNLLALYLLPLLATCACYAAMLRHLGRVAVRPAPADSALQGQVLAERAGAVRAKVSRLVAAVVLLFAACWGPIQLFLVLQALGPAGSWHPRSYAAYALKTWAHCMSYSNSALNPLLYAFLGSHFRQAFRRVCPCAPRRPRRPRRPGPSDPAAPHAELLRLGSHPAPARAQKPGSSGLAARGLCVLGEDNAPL

As for `Cc1ccc(CNCC(=O)N2CCC(NC(=O)[C@H](CC(C)C)NC(=O)NNC(=O)[C@H](Cc3ccccc3)NC(=O)[C@@H](NC(=O)[C@H](CC(N)=O)NC(=O)[C@@H](Cc3c[nH]c4ccccc34)NC(=O)[C@@H](Cc3ccc(O)cc3)NC(=O)CCCCCNC(=O)[C@@H](CS(=O)(=O)O)NC(=O)[C@@H](CS(=O)(=O)O)NC(=O)[C@@H](CS(=O)(=O)O)NC(=O)CN3CCN(CC(=O)O)CCN(CC(=O)O)CCN(CC(=O)O)CC3)[C@@H](C)O)(C(=O)N[C@@H](Cc3c[nH]c4ccccc34)C(N)=O)CC2)cc1F` [Compound 114] ({DOTA}-[dCya][dCya][dCya][Ahx][dY][dW]NTF[azaGly]L[Api](Gly(N-(3-F-4-Me-benzyl)))W-NH2), the Ki under setting [1] is less than 0.01 µM.
Same read-out and setting: then `Cc1ccc(CNCC(=O)N2CCC(NC(=O)[C@H](CC(C)C)NC(=O)NNC(=O)[C@H](Cc3ccccc3)NC(=O)[C@@H](NC(=O)[C@H](CC(N)=O)NC(=O)[C@@H](Cc3c[nH]c4ccccc34)NC(=O)[C@@H](Cc3ccc(O)cc3)NC(=O)CCCCCNC(=O)[C@@H](CS(=O)(=O)O)NC(=O)CN3CCN(CC(=O)O)CCN(CC(=O)O)CCN(CC(=O)O)CC3)[C@@H](C)O)(C(=O)N[C@@H](Cc3c[nH]c4ccccc34)C(N)=O)CC2)cc1F` [Compound 115] ({DOTA}-[dCya][Ahx][dY][dW]NTF[azaGly]L[Api](Gly(N-(3-F-4-Me-benzyl)))W-NH2), with less than 0.01 µM; and `Cc1ccc(CNCC(=O)N2CCC(NC(=O)[C@H](CC(C)C)NC(=O)NNC(=O)[C@H](Cc3ccccc3)NC(=O)CCCCCNC(=O)[C@@H](CS(=O)(=O)O)NC(=O)CN3CCN(CC(=O)O)CCN(CC(=O)O)CCN(CC(=O)O)CC3)(C(=O)N[C@@H](Cc3c[nH]c4ccccc34)C(N)=O)CC2)cc1F` [Compound 116] ({DOTA}-[dCya][Ahx]F[azaGly]L[Api](Gly(N-(3-F-4-Me-benzyl)))W-NH2), with less than 0.01 µM.
`Cc1ccc(CNCC(=O)N2CCC(NC(=O)[C@H](CC(C)C)NC(=O)NNC(=O)[C@H](Cc3ccccc3)NC(=O)[C@@H](NC(=O)[C@H](CC(N)=O)NC(=O)[C@H](Cc3ccc4ccccc4c3)NC(=O)[C@@H](Cc3ccc(O)cc3)NC(=O)CCCCCNC(=O)CN3CCN4CCN5CCN(CC3)CC(=O)[O][Lu]([O]C(=O)C4)[O]C(=O)C5)[C@@H](C)O)(C(=O)N[C@@H](Cc3c[nH]c4ccccc34)C(N)=O)CC2)cc1F` [Compound 118-Lu] ({DOTA(Lu)-Ahx}-[dY][2Nal]NTF[azaGly]L[Api](Gly(N-(3-F-4-Me-benzyl)))W-NH2) came in with a Ki of less than 0.01 µM.
On to `Cc1ccc(CNCC(=O)N2CCC(NC(=O)[C@H](CC(C)C)NC(=O)NNC(=O)[C@H](Cc3ccccc3)NC(=O)[C@@H](NC(=O)[C@H](CC(N)=O)NC(=O)[C@H](Cc3ccc4ccccc4c3)NC(=O)[C@@H](Cc3ccc(O)cc3)NC(=O)CCCCCNC(=O)CN3CCN(CC(=O)O)CCN(CC(=O)O)CCN(CC(=O)O)CC3)[C@@H](C)O)(C(=O)N[C@@H](Cc3c[nH]c4ccccc34)C(N)=O)CC2)cc1F` [Compound 118] ({DOTA-Ahx}-[dY][2Nal]NTF[azaGly]L[Api](Gly(N-(3-F-4-Me-benzyl)))W-NH2), for which the Ki under setting [1] was less than 0.01 µM.
Consider `CCCCCCCCCCCCCCCC(=O)N[C@@H](CCC(=O)N[C@@H](CCCCNC(=O)CCOCCOCCOCCOCCNC(=O)CN1CCN(CC(=O)O)CCN(CC(=O)O)CCN(CC(=O)O)CC1)C(=O)N[C@H](Cc1ccc(O)cc1)C(=O)N[C@H](Cc1c[nH]c2ccccc12)C(=O)N[C@@H](CC(N)=O)C(=O)N[C@H](C(=O)N[C@@H](Cc1ccccc1)C(=O)NNC(=O)N[C@@H](CC(C)C)C(=O)NC1(C(=O)N[C@@H](Cc2c[nH]c3ccccc23)C(N)=O)CCN(C(=O)CNCc2ccc(C)c(F)c2)CC1)[C@@H](C)O)C(=O)O` [Compound 119] ({Palmitoyl-γGlu}-K([PEG4-DOTA])[dY][dW]NTF[azaGly]L[Api](Gly(N-(3-F-4-Me-benzyl)))W-NH2), for which the Ki under setting [1] is less than 0.01 µM.
The same measure, in the same setting: then `Cc1ccc(CNCC(=O)N2CCC(NC(=O)[C@H](CC(C)C)NC(=O)NNC(=O)[C@H](Cc3ccccc3)NC(=O)[C@@H](NC(=O)[C@H](CC(N)=O)NC(=O)[C@@H](Cc3c[nH]c4ccccc34)NC(=O)[C@@H](Cc3ccc(O)cc3)NC(=O)CCCCCNC(=O)[C@@H](CS(=O)(=O)O)NC(=O)[C@@H](CS(=O)(=O)O)NC(=O)CN3CCN(CC(=O)O)CCN(CC(=O)O)CCN(CC(=O)O)CC3)[C@@H](C)O)(C(=O)N[C@@H](Cc3c[nH]c4ccccc34)C(N)=O)CC2)cc1F` [Compound 120] ({DOTA}-[dCya][dCya][Ahx][dY][dW]NTF[azaGly]L[Api](Gly(N-(3-F-4-Me-benzyl)))W-NH2), with less than 0.01 µM.
Take `CC(C)C[C@H](NC(=O)NNC(=O)[C@H](Cc1ccc(I)cc1)NC(=O)[C@@H](NC(=O)[C@H](CC(N)=O)NC(=O)[C@H](Cc1ccc(I)cc1)NC(=O)[C@@H](Cc1ccc(O)cc1)NC(=O)CN1CCN(CC(=O)O)CCN(CC(=O)O)CCN(CC(=O)O)CC1)[C@@H](C)O)C(=O)NC1(C(=O)N[C@@H](Cc2ccncc2)C(N)=O)CCN(C(=N)N)CC1` [Compound 121] ({DOTA}-[dY][Phe(4-I)]NT[Phe(4-I)][azaGly]L[Api(1-amidino)][4Pal]-NH2): the Ki under setting [1] was 0.01 to 0.1 µM.
On the same count and under the same terms, the value for `CCCC[C@H](NC(=O)NNC(=O)[C@H](Cc1ccccc1)NC(=O)[C@@H](NC(=O)[C@H](CC(N)=O)NC(=O)[C@H](Cc1c2ccccc2cc2ccccc12)NC(=O)[C@@H](Cc1ccc(O)cc1)NC(=O)CN1CCN(CC(=O)O)CCN(CC(=O)O)CCN(CC(=O)O)CC1)[C@@H](C)O)C(=O)NC1(C(=O)N[C@@H](Cc2ccncc2)C(N)=O)CCN(C(=N)N)CC1` [Compound 123] ({DOTA}-[dY][Ala(9-anthryl)]NTF[azaGly][Nle][Api(1-amidino)][4Pal]-NH2) was greater than 0.1 µM; that for `Cc1ccc(CNCC(=O)N2CCC(NC(=O)[C@H](CC(C)C)NC(=O)NNC(=O)[C@H](Cc3ccccc3)NC(=O)CCCCCNC(=O)[C@@H](CS(=O)(=O)O)NC(=O)[C@@H](CS(=O)(=O)O)NC(=O)CN3CCN(CC(=O)O)CCN(CC(=O)O)CCN(CC(=O)O)CC3)(C(=O)N[C@@H](Cc3c[nH]c4ccccc34)C(N)=O)CC2)cc1F` [Compound 130] ({DOTA}-[dCya][dCya][Ahx]F[azaGly]L[Api](Gly(N-(3-F-4-Me-benzyl)))W-NH2) was less than 0.01 µM; that for `Cc1ccc(CNCC(=O)N2CCC(NC(=O)[C@H](CC(C)C)NC(=O)NNC(=O)[C@H](Cc3ccccc3)NC(=O)CCCCCNC(=O)[C@@H](CS(=O)(=O)O)NC(=O)[C@@H](CS(=O)(=O)O)NC(=O)[C@@H](CS(=O)(=O)O)NC(=O)CN3CCN(CC(=O)O)CCN(CC(=O)O)CCN(CC(=O)O)CC3)(C(=O)N[C@@H](Cc3c[nH]c4ccccc34)C(N)=O)CC2)cc1F` [Compound 131] ({DOTA}-[dCya][dCya][dCya][Ahx]F[azaGly]L[Api](Gly(N-(3-F-4-Me-benzyl)))W-NH2) was less than 0.01 µM.
The same measure, in the same setting: the value for `Cc1ccc(CNCC(=O)N2CCC(NC(=O)c3cccc(OCCNC(=O)[C@H](Cc4ccccc4)NC(=O)CCCCCNC(=O)CN4CCN(CC(=O)O)CCN(CC(=O)O)CCN(CC(=O)O)CC4)c3)(C(=O)N[C@@H](Cc3c[nH]c4ccccc34)C(N)=O)CC2)cc1F` [Compound 134] was 0.01 to 0.1 µM; that for `Cc1ccc(CNCC(=O)N2CCC(NC(=O)c3cccc(CNC(=O)[C@H](Cc4ccccc4)NC(=O)CCCCCNC(=O)CN4CCN(CC(=O)O)CCN(CC(=O)O)CCN(CC(=O)O)CC4)n3)(C(=O)N[C@@H](Cc3c[nH]c4ccccc34)C(N)=O)CC2)cc1F` [Compound 135] was greater than 0.1 µM.
Consider `Cc1ccc(CNCC(=O)N2CCC(NC(=O)c3ccnc(CNC(=O)[C@H](Cc4ccccc4)NC(=O)CCCCCNC(=O)CN4CCN(CC(=O)O)CCN(CC(=O)O)CCN(CC(=O)O)CC4)c3)(C(=O)N[C@@H](Cc3c[nH]c4ccccc34)C(N)=O)CC2)cc1F` [Compound 136], for which, under setting [1], the Ki was greater than 0.1 µM.
Consider `Cc1ccc(CNCC(=O)N2CCC(NC(=O)[C@@H](CC(C)C)SCCNC(=O)[C@H](Cc3ccccc3)NC(=O)CCCCCNC(=O)CN3CCN(CC(=O)O)CCN(CC(=O)O)CCN(CC(=O)O)CC3)(C(=O)N[C@@H](Cc3c[nH]c4ccccc34)C(N)=O)CC2)cc1F` [Compound 137], for which the Ki under setting [1] is less than 0.01 µM.
Same read-out and setting: the value for `Cc1ccc(CNCC(=O)N2CCC(NC(=O)[C@H](CC(C)C)SC(C)(C)CNC(=O)[C@H](Cc3ccccc3)NC(=O)CCCCCNC(=O)CN3CCN(CC(=O)O)CCN(CC(=O)O)CCN(CC(=O)O)CC3)(C(=O)N[C@@H](Cc3c[nH]c4ccccc34)C(N)=O)CC2)cc1F` [Compound 138] was 0.01 to 0.1 µM; that for `Cc1ccc(CNCC(=O)N2CCC(NC(=O)[C@H](CC(C)C)N3CC(NC(=O)[C@H](Cc4ccccc4)NC(=O)CCCCCNC(=O)CN4CCN(CC(=O)O)CCN(CC(=O)O)CCN(CC(=O)O)CC4)C3)(C(=O)N[C@@H](Cc3c[nH]c4ccccc34)C(N)=O)CC2)cc1F` [Compound 139] was 0.01 to 0.1 µM.
As for `COc1ccc(CNCC(=O)N2CCC(NC(=O)[C@H](CC(C)C)NC(=O)NNC(=O)[C@H](Cc3ccccc3)NC(=O)[C@@H](NC(=O)[C@H](CC(N)=O)NC(=O)[C@@H](Cc3c[nH]c4ccccc34)NC(=O)[C@@H](Cc3ccc(O)cc3)NC(=O)CCCCCNC(=O)CN3CCN(CC(=O)O)CCN(CC(=O)O)CCN(CC(=O)O)CC3)[C@@H](C)O)(C(=O)N[C@@H](Cc3ccccc3)C(N)=O)CC2)cc1` [Compound 140] ({DOTA-Ahx}-[dY][dW]NTF[azaGly]L[Api](Gly(Nα-4-MeO-benzyl))F-NH2), the Ki under setting [1] is less than 0.01 µM.
For the compound `Cc1ccc(CNCC(=O)N2CCC(NC(=O)[C@H](CC(C)C)NC(=O)NNC(=O)[C@H](Cc3ccccc3)NC(=O)CCCCCNC(=O)CN3CCN(CC(=O)O)CCN(CC(=O)O)CCN(CC(=O)O)CC3)(C(=O)N[C@@H](CC3CCCCC3)C(N)=O)CC2)cc1F` [Compound 141] ({DOTA-Ahx}-F[azaGly]L[Api](Gly(N-(3-F-4-Me-benzyl)))[Cha]-NH2), the Ki under setting [1] is 0.01 to 0.1 µM.
For `Cc1ccc(CNCC(=O)N2CCC(NC(=O)[C@H](CC(C)C)NC(=O)NNC(=O)[C@H](Cc3ccc(-c4ccccc4)cc3)NC(=O)CN3CCC(NC(=O)CN4CCN(CC(=O)O)CCN(CC(=O)O)CCN(CC(=O)O)CC4)CC3)(C(=O)N[C@@H](Cc3c[nH]c4ccccc34)C(N)=O)CC2)cc1F` [Compound 142] ({DOTA}-[X1][Bip][azaGly]L[Api](Gly(N-(3-F-4-Me-benzyl)))W-NH2), the Ki under setting [1] is less than 0.01 µM.

Usually Ki stands for a dissociation constant, usually derived from enzyme kinetics or from competition with a known ligand.
